What was measured:
[1] = test system: liver mitochondria; settings: cited from earlier work
[2] = test system: MPTP-induced dopamine depletion and dopaminergic neuron loss; test: MPTP experimental animal model for Parkinson's Disease; type: in vivo
From the text: 1-Methyl-4-phenyl-1,2,3,6-tetrahydropyridine (MPTP) has been employed as an experimental animal model for Parkinson's Disease. As evidenced by FIG. 9, promethazine appeared to have no effect on striatal dopamine levels at base line.

[3] = test system: humans; settings: human, in vivo; cited from earlier work
[4] = test system: primary cerebrocortical neurons; test: Oxygen-glucose deprivation (OGD) of cultured primary cerebrocortical neurons; type: cell-based, mouse; settings: for OGD-mediated neuronal death (LDH release): promethazine 0.1 μM (p=0.05) and 0.5 μM (p<0.001)
Procedure: Heterocyclic-mediated protection was next examined in two models of stroke: (i) oxygen-glucose deprivation (OGD) of cultured primary cerebrocortical neurons, and; (ii) in the mouse, middle cerebral artery occlusion (MCAO)/reperfusion.
Neurotoxicity studies were conducted as previously described. […] Cerebral cortex of mouse embryos at day 15 (E15) were freed from meninges and separated from olfactory bulb and hippocampus.
OGD of primary cerebrocortical neurons is a widely used cell culture model of stroke-related pathology. […] Caspase-3 activation plays a key role in hypoxia/ischemia-mediated injury. To gam insight into the mechanism of promethazine-mediated neuroprotection, it was evaluated whether this compound could inhibit OGD-mediated caspase-3 activation.

[5] = test system: phospholipase A2; type: biochemical
[6] = test system: 3-nitropropionic acid induced striatal lesions in Lewis rats; test: 3-nitropropionic acid striatal lesion model (Huntington's Disease); type: in vivo, rat
Procedure: Male Lewis 344 rats were administered 3-nitroproprionic acid by subcutaneous Alzet pumps. 3-Nitropropionic acid is a mitochondrial toxin which causes selective degeneration in the basal ganglia, mice, rats and primates. The lesions that it produces highly mimic the neuropathologic features associated with Huntington's Disease. The male Lewis rats weighed from about 340 to abut 370 grams and were obtained from Charles River Laboratories. At twelve weeks of age, the subcutaneous pumps were implanted. The concentration for each individual rat was calculated so that the animals received a dose of 38 mg/kg/d. Control animals were implanted with empty osmotic pumps. The 3-nitropropionic acid was administered for one week. Animals were treated with either phosphate buffered saline (PBS) promethazine in PBS at doses of 5 to 40 mg/kg/d. One week after the administration of the compound the rats were deeply anesthetized and transcardially perfused with 4% paraformaldehyde in PBS. Subsequently, 50 μm sections were obtained and stained for nissel substance. The lesion volumes were then calculated using stereologic procedures.

[7] = test system: mouse middle cerebral artery occlusion (MCAO)/reperfusion; test: Middle cerebral artery occlusion (MCAO)/reperfusion, promethazine study; type: in vivo
Procedure: Middle cerebral artery occlusion/reperfusion studies were conducted as previously described. […] All animal experiments were conducted in accordance with National Institutes of Health and institutional guidelines. Male C57/B6 (Charles River Laboratories) mice weighing 18-29 g were housed in standard temperature (22±1° C.) and light-controlled (light on 07:00-21:00) environment with ad libitum access to food and water. Weight of animals undergoing stroke were restricted to less than 22 g. Animals undergoing stroke were randomized to two groups: untreated OP injection with 0.9% saline) and treated (IP injection with promethazine solution). Weight of animals undergoing sham operations was liberalized to 18-29 g. Surgery and Occlusion: Immediately before surgery, each mouse was anesthetized with 2% isoflurane (70% N2O/30% O2). During surgery, isoflurane was lowered to 1%. A midline incision was made in the neck and the right common carotid artery was dissected. The right MCA was occluded with a 7-0 nylon filament after permanent ligation of the external carotid artery and temporary ligation of the common carotid artery. […] Right MCA occlusion was defined as greater than or equal to a 90% drop of peak velocity measured by the laser Doppler flowmetry drop. […] The occluding filament was removed after 120 minutes. Sham operations consisted of the same duration and concentration of anesthesia, midline incision, doppler probe insertion over right temporal bone, and dissection of common carotid artery but no manipulation of the common carotid artery or external carotid artery. The surgeon was bided to treatment group. All mice were sacrificed at 24 hrs post perfusion. Experiments were in accordance with protocols approved by the Harvard Medical School Animal Care Committee. Drug Treatment: Both treated and control groups received two IP injections: the first one delivered 1 hr prior to ischemia and the second delivered 12 hrs later. Each i.p. dose was 10 mg/kg (in 0.5 ml) of promethazine dissolved in 0.9% NaCl or an equal volume of buffer alone. […] Determination of Infarct Volume: After 24 hrs of reperfusion, the mice were sacrificed. The brains were quickly removed and chilled for 2 minutes. The cerebellum was removed, Coronal sections (2 mm thick; n=6) were cut in a craniotome. […] After staining, each slice was scanned by an HP scanjet 4200 C, The unstained areas in each hemisphere were quantified and the ischemic area per slice=left (normal side)-right (ischemic side). […] The infarct volume was calculated by summing up the infracted areas in the 6 slices and calculating the volume for a cylinder (area×height). […] The examiner was blinded to treatment group.

[8] = test system: heart during ischemia; settings: cited from earlier work

For NCCc1c[nH]cn1 [Histamine], which “swelling of liver mitochondria” value [1] is on record?
Its value is “cause swelling”.

Which results are given for CC(CN1c2ccccc2Sc2ccccc21)N(C)C (stereo not shown) [Promethazine]?
MPTP-induced reduction in striatal dopamine levels ([2]; 20 mg/kg): significantly attenuated; depletion of striatal dopamine levels, dose response ([2]; 2.5, 5, and 40 mg/kg examined, optimal effects at 10 and 40 mg/kg): dose-dependent neuroprotection; loss of dopaminergic neurons in the substantia nigra pars compacta ([2]; 50% cell loss following MPTP): significantly attenuated; striatal dopamine levels at base line ([2]; without MPTP): no effect; tolerability in humans [3]: well-tolerated drug with few adverse side effects; OGD-mediated caspase-3 activation [4]: reduced; OGD-mediated neuronal death (LDH release) [4]: inhibited; OGD-mediated neuronal death (LDH release) ([4]; listed as promethazine): protection; PLA2 inhibition [5]: does not appear to be a strong; striatal lesion volume ([6]; 3-nitropropionic acid 38 mg/kg/d for one week, promethazine 5 to 40 mg/kg/d, untreated ~14 mm^3): ~4 mm^3; 3-nitropropionic induced lesions ([6]; increasing dosages): blocked; reduction in lesion size compared with saline-treated mice ([7]; 10 mg/kg i.p. 1 hr prior to ischemia and 12 hrs later, 24 hrs reperfusion, n=13, p<0.005): 53%; reduction of maximal infarct size ([7]; 10 mg/kg i.p. twice): 65%; reduction of variability of the injury ([7]; 10 mg/kg i.p. twice): 65%; neurologic score ([7]; 30 minute post-ischemia evaluation): not different; neurologic impairment score ([7]; 24 hours following MCAO, p<0.05): significantly improved; protection from MCA occlusion/reperfusion ([7]; total stroke volume P<0.005): protects

Which “protection in the heart during ischemia” value [8] does the source give for CCN(CC)CCCC(C)Nc1c2ccc(Cl)cc2nc2ccc(OC)cc12 (stereo not shown) [Quinacrine] here?
The value was “protective agent”.

From patent US20080119517A1, “COMPOSITIONS AND METHODS FOR PROTECTING AGAINST MITOCHONDRIA COMPONENT-MEDIATED PATHOLOGY” (Cornell Research Foundation, Inc., priority 2003, published 2008)
